From ChEMBL document CHEMBL1140493, “Quantitative structure-activity relationship studies for prediction of antimicrobial activity of synthesized 2,4-hexadienoic acid derivatives” (Bioorg Med Chem Lett, 2007)
Values after ≈ are worked out from the molar mass of the structure shown.

Tests used:
Staphylococcus aureus = experiment: Antimicrobial activity against Staphylococcus aureus after 24 hrs by twofold serial dilution method; assay type: functional; details: read-out: -Log MIC
Bacillus subtilis = experiment: Antimicrobial activity against Bacillus subtilis after 24 hrs by twofold serial dilution method; assay type: functional; details: read-out: -Log MIC
Aspergillus niger = experiment: Antifungal activity against Aspergillus niger after 7 days by twofold serial dilution method; assay type: functional; details: 168 h, read-out: -Log MIC
[1] = Partition coefficient, log P of the compound; details: octanol/water
Candida albicans = experiment: Antifungal activity against Candida albicans after 2 days by twofold serial dilution method; assay type: functional; details: 48 h, read-out: -Log MIC
Escherichia coli = experiment: Antimicrobial activity against Escherichia coli after 24 hrs by twofold serial dilution method; assay type: functional; details: read-out: -Log MIC

Row | Compound | MIC (Staphylococcus aureus) [µM] | MIC (Bacillus subtilis) [µM] | MIC (Aspergillus niger) [µM] | logP [1] | MIC (Candida albicans) [µM] | MIC (Escherichia coli) [µM]
1 | C/C=C/C=C/C(=O)OCCC(C)C | 63.1 (≈ 11.5 µg/mL) | 55 (≈ 10 µg/mL) | 69.2 (≈ 12.6 µg/mL) | 3.04 | 69.2 (≈ 12.6 µg/mL) | 100 (≈ 18.2 µg/mL)
2 | O=C(O)c1cn(C2CC2)c2cc(N3CCNCC3)c(F)cc2c1=O [CIPROFLOXACIN] | 0.468 (≈ 0.155 µg/mL) | 0.468 (≈ 0.155 µg/mL) |  |  |  | 0.468 (≈ 0.155 µg/mL)
3 | C/C=C/C=C/C(=O)NN |  | 100 (≈ 12.6 µg/mL) |  | 0.59 | 100 (≈ 12.6 µg/mL) | 
4 | C/C=C/C=C/C(=O)Nc1cccc(Cl)c1 | 63.1 (≈ 14 µg/mL) | 50.1 (≈ 11.1 µg/mL) | 39.8 (≈ 8.82 µg/mL) | 3.05 | 50.1 (≈ 11.1 µg/mL) | 72.4 (≈ 16.1 µg/mL)
5 | C/C=C/C=C/C(=O)OC [METHYL SORBATE] | 100 (≈ 12.6 µg/mL) | 79.4 (≈ 10 µg/mL) | 100 (≈ 12.6 µg/mL) | 1.5 | 79.4 (≈ 10 µg/mL) | 
6 | C/C=C/C=C/C(=O)Nc1cccc(C)c1 | 61.7 (≈ 12.4 µg/mL) | 47.9 (≈ 9.64 µg/mL) | 61.7 (≈ 12.4 µg/mL) | 3 | 61.7 (≈ 12.4 µg/mL) | 79.4 (≈ 16 µg/mL)
7 | C/C=C/C=C/C(=O)Nc1ccc(Cl)cc1 | 63.1 (≈ 14 µg/mL) | 44.7 (≈ 9.91 µg/mL) | 50.1 (≈ 11.1 µg/mL) | 3.05 | 50.1 (≈ 11.1 µg/mL) | 72.4 (≈ 16.1 µg/mL)
8 | C/C=C/C=C/C(=O)Nc1ccc(OC)cc1 | 64.6 (≈ 14 µg/mL) | 45.7 (≈ 9.93 µg/mL) | 44.7 (≈ 9.71 µg/mL) | 2.28 | 50.1 (≈ 10.9 µg/mL) | 64.6 (≈ 14 µg/mL)
9 | C/C=C/C=C/C(=O)Oc1cccc2cccnc12 | 12.9 (≈ 3.09 µg/mL) | 12.9 (≈ 3.09 µg/mL) | 38 (≈ 9.09 µg/mL) | 3.27 | 52.5 (≈ 12.6 µg/mL) | 12.9 (≈ 3.09 µg/mL)
10 | C/C=C/C=C/C(=O)OCCC |  | 70.8 (≈ 10.9 µg/mL) | 81.3 (≈ 12.5 µg/mL) | 2.31 | 70.8 (≈ 10.9 µg/mL) | 
11 | C/C=C/C=C/C(=O)N1CCCCC1 | 77.6 (≈ 13.9 µg/mL) | 61.7 (≈ 11.1 µg/mL) | 63.1 (≈ 11.3 µg/mL) | 1.82 | 69.2 (≈ 12.4 µg/mL) | 
12 | C/C=C/C=C/C(=O)O [SORBIC ACID] |  |  |  | 1.47 |  | 
13 | C/C=C/C=C/C(=O)Nc1cccc(O)c1 | 89.1 (≈ 18.1 µg/mL) | 53.7 (≈ 10.9 µg/mL) | 69.2 (≈ 14.1 µg/mL) | 2.25 | 53.7 (≈ 10.9 µg/mL) | 100 (≈ 20.3 µg/mL)
14 | C/C=C/C=C/C(=O)OCC(C)C | 100 (≈ 16.8 µg/mL) | 74.1 (≈ 12.5 µg/mL) | 63.1 (≈ 10.6 µg/mL) | 2.71 | 74.1 (≈ 12.5 µg/mL) | 
15 | C=CCOC(=O)/C=C/C=C/C |  | 79.4 (≈ 12.1 µg/mL) | 79.4 (≈ 12.1 µg/mL) | 2.24 | 81.3 (≈ 12.4 µg/mL) | 
16 | C/C=C/C=C/C(=O)OCCCCC | 79.4 (≈ 14.5 µg/mL) | 63.1 (≈ 11.5 µg/mL) | 69.2 (≈ 12.6 µg/mL) | 3.1 | 50.1 (≈ 9.13 µg/mL) | 100 (≈ 18.2 µg/mL)
17 | C/C=C/C=C/C(=O)Nc1ccc(Br)cc1 | 37.2 (≈ 9.9 µg/mL) | 47.9 (≈ 12.7 µg/mL) | 50.1 (≈ 13.3 µg/mL) | 3.32 | 46.8 (≈ 12.5 µg/mL) | 79.4 (≈ 21.1 µg/mL)
18 | C/C=C/C=C/C(=O)OCc1ccccc1 | 63.1 (≈ 12.8 µg/mL) | 69.2 (≈ 14 µg/mL) | 70.8 (≈ 14.3 µg/mL) | 3.28 | 61.7 (≈ 12.5 µg/mL) | 100 (≈ 20.2 µg/mL)
19 | C/C=C/C=C/C(=O)OC(C)CC (stereo not given) |  | 74.1 (≈ 12.5 µg/mL) | 83.2 (≈ 14 µg/mL) | 2.72 | 74.1 (≈ 12.5 µg/mL) | 
20 | C/C=C/C=C/C(=O)Nc1ccc(C)cc1 | 61.7 (≈ 12.4 µg/mL) | 55 (≈ 11.1 µg/mL) | 34.7 (≈ 6.98 µg/mL) | 3 | 55 (≈ 11.1 µg/mL) | 100 (≈ 20.1 µg/mL)
21 | C/C=C/C=C/C(=O)OCCCC | 100 (≈ 16.8 µg/mL) | 74.1 (≈ 12.5 µg/mL) | 74.1 (≈ 12.5 µg/mL) | 2.71 | 74.1 (≈ 12.5 µg/mL) | 
22 | C/C=C/C=C/C(=O)NCCO |  | 91.2 (≈ 14.2 µg/mL) |  | 0.41 | 81.3 (≈ 12.6 µg/mL) | 

Further compounds by falling MIC (Bacillus subtilis), results first:

Row | MIC (Staphylococcus aureus) [µM] | MIC (Bacillus subtilis) [µM] | MIC (Aspergillus niger) [µM] | logP [1] | MIC (Candida albicans) [µM] | MIC (Escherichia coli) [µM] | Compound
23 |  | 89.1 (≈ 12.5 µg/mL) | 100 (≈ 14 µg/mL) | 1.84 | 77.6 (≈ 10.9 µg/mL) |  | C/C=C/C=C/C(=O)OCC
24 |  | 89.1 (≈ 12.4 µg/mL) | 89.1 (≈ 12.4 µg/mL) | 1.19 | 79.4 (≈ 11.1 µg/mL) |  | C/C=C/C=C/C(=O)NCC
25 | 100 (≈ 12.5 µg/mL) | 79.4 (≈ 9.94 µg/mL) | 79.4 (≈ 9.94 µg/mL) | 0.85 | 79.4 (≈ 9.94 µg/mL) |  | C/C=C/C=C/C(=O)NC
26 | 100 (≈ 15.3 µg/mL) | 72.4 (≈ 11.1 µg/mL) | 100 (≈ 15.3 µg/mL) | 1.66 | 81.3 (≈ 12.5 µg/mL) |  | C/C=C/C=C/C(=O)NCCC
27 | 79.4 (≈ 11.1 µg/mL) | 72.4 (≈ 10.1 µg/mL) | 79.4 (≈ 11.1 µg/mL) | 1.1 | 63.1 (≈ 8.78 µg/mL) |  | C/C=C/C=C/C(=O)N(C)C
28 |  | 66.1 (≈ 12.4 µg/mL) | 74.1 (≈ 13.9 µg/mL) | 2.53 | 66.1 (≈ 12.4 µg/mL) |  | C/C=C/C=C/C(=O)Nc1ccccc1
29 | 79.4 (≈ 15.8 µg/mL) | 63.1 (≈ 12.6 µg/mL) |  | 0.21 | 50.1 (≈ 9.98 µg/mL) | 91.2 (≈ 18.2 µg/mL) | C/C=C/C=C/C(=O)N(CCO)CCO
30 | 100 (≈ 19.6 µg/mL) | 63.1 (≈ 12.4 µg/mL) | 63.1 (≈ 12.4 µg/mL) | 3.5 | 51.3 (≈ 10.1 µg/mL) |  | C/C=C/C=C/C(=O)OCCCCCC
31 | 81.3 (≈ 12.5 µg/mL) | 63.1 (≈ 9.73 µg/mL) | 56.2 (≈ 8.67 µg/mL) | 2.26 | 63.1 (≈ 9.73 µg/mL) |  | C/C=C/C=C/C(=O)OC(C)C
32 | 70.8 (≈ 14.2 µg/mL) | 61.7 (≈ 12.4 µg/mL) | 61.7 (≈ 12.4 µg/mL) | 2.63 | 61.7 (≈ 12.4 µg/mL) | 100 (≈ 20.1 µg/mL) | C/C=C/C=C/C(=O)NCc1ccccc1
33 | 95.5 (≈ 18 µg/mL) | 58.9 (≈ 11.1 µg/mL) | 47.9 (≈ 9.02 µg/mL) | 3.18 | 56.2 (≈ 10.6 µg/mL) | 74.1 (≈ 13.9 µg/mL) | C/C=C/C=C/C(=O)Oc1ccccc1
34 | 63.1 (≈ 13.7 µg/mL) | 57.5 (≈ 12.5 µg/mL) | 63.1 (≈ 13.7 µg/mL) | 2.28 | 50.1 (≈ 10.9 µg/mL) | 79.4 (≈ 17.3 µg/mL) | C/C=C/C=C/C(=O)Nc1ccccc1OC
35 | 70.8 (≈ 15.7 µg/mL) | 56.2 (≈ 12.5 µg/mL) | 63.1 (≈ 14 µg/mL) | 3.05 | 56.2 (≈ 12.5 µg/mL) | 81.3 (≈ 18 µg/mL) | C/C=C/C=C/C(=O)Nc1ccccc1Cl
36 | 69.2 (≈ 12.5 µg/mL) | 55 (≈ 9.97 µg/mL) | 79.4 (≈ 14.4 µg/mL) | 0.75 | 63.1 (≈ 11.4 µg/mL) |  | C/C=C/C=C/C(=O)N1CCOCC1
37 | 58.9 (≈ 12.4 µg/mL) | 50.1 (≈ 10.5 µg/mL) | 58.9 (≈ 12.4 µg/mL) | 3.9 | 58.9 (≈ 12.4 µg/mL) | 79.4 (≈ 16.7 µg/mL) | C/C=C/C=C/C(=O)OCCCCCCC
38 | 74.1 (≈ 12.5 µg/mL) | 50.1 (≈ 8.43 µg/mL) | 74.1 (≈ 12.5 µg/mL) | 2.33 | 53.7 (≈ 9.03 µg/mL) | 83.2 (≈ 14 µg/mL) | C/C=C/C=C/C(=O)OC(C)(C)C
39 | 63.1 (≈ 12.8 µg/mL) | 49 (≈ 9.91 µg/mL) | 69.2 (≈ 14 µg/mL) | 1.75 | 61.7 (≈ 12.5 µg/mL) | 69.2 (≈ 14 µg/mL) | C/C=C/C=C/C(=O)Nc1ccccc1N
40 | 60.3 (≈ 14 µg/mL) | 38.9 (≈ 9.03 µg/mL) | 53.7 (≈ 12.5 µg/mL) | 2.49 | 53.7 (≈ 12.5 µg/mL) | 60.3 (≈ 14 µg/mL) | C/C=C/C=C/C(=O)Nc1ccc([N+](=O)[O-])cc1
41 | 50.1 (≈ 13.2 µg/mL) | 38 (≈ 10 µg/mL) | 39.8 (≈ 10.5 µg/mL) | 4.46 | 47.9 (≈ 12.6 µg/mL) | 58.9 (≈ 15.5 µg/mL) | C/C=C/C=C/C(=O)N(c1ccccc1)c1ccccc1
42 | 50.1 (≈ 11.6 µg/mL) | 34.7 (≈ 8.06 µg/mL) | 39.8 (≈ 9.24 µg/mL) | 2.49 | 47.9 (≈ 11.1 µg/mL) | 60.3 (≈ 14 µg/mL) | C/C=C/C=C/C(=O)Nc1cccc([N+](=O)[O-])c1
